Assay results: patent publication US5556979A, “7-isoindolinyl-naphthyridone derivatives, compositions and anti-bacterial use thereof” (Bayer Aktiengesellschaft, priority 1992, dated 1996)
Values after ≈ are worked out from the molar mass of the structure shown.

How the values were obtained:
Assay in all cases: Minimum inhibitory concentration (MIC), serial dilution on Iso-Sensitest agar
Type in all cases: cell-based
E. coli Neumann = settings: Escherichia coli, 37° C., about 20 hours
Procedure: (§1) The minimum inhibitory concentrations (MIC) were determined by means of serial dilution methods on Iso-Sensitest agar (Oxoid). For each substance to be tested, a series of agar plates was prepared which contained concentrations of the active compound which decreased by a double dilution on each occasion. The agar plates were inoculated with a Multipoint inoculator (Denley). For the inoculation, overnight cultures of the pathogens were used which had previously been diluted so that each inoculation spot contained about 10^4 colony-forming particles. The inoculated agar plates were incubated at 37° C. and the organism growth was recorded after about 20 hours. The MIC value (μg/ml) indicates the lowest concentration of active compound at which no growth could be detected with the naked eye.

[1] = test system: Entercoccus faecalis 27 101; settings: 37° C., about 20 hours
Procedure: as §1

[2] = test system: Enterobacter cloacae 2427; settings: 37° C., about 20 hours
Procedure: as §1

Klebsiella sp. 8085 = settings: 37° C., about 20 hours
Procedure: as §1

Micrococcus luteus 9341 = settings: 37° C., about 20 hours
Procedure: as §1

Morganella morg. 932 = settings: 37° C., about 20 hours
Procedure: as §1

Providencia sp. 12012 = settings: 37° C., about 20 hours
Procedure: as §1

[3] = test system: Pseudomonas aeruginosa Walter; settings: 37° C., about 20 hours
Procedure: as §1

[4] = test system: Staphylococcus aureus 1756; settings: 37° C., about 20 hours
Procedure: as §1

[5] = test system: Staphylococcus aureus ICB 25701; settings: ICB25701, 37° C., about 20 hours
Procedure: as §1

SMILES | MIC (E. coli Neumann) [µg/mL] | MIC [1] [µg/mL] | MIC [2] [µg/mL] | MIC (Klebsiella sp. 8085) [µg/mL] | MIC (Micrococcus luteus 9341) [µg/mL] | MIC (Morganella morg. 932) [µg/mL] | MIC (Providencia sp. 12012) [µg/mL] | MIC [3] [µg/mL] | MIC [4] [µg/mL] | MIC [5] [µg/mL]
N[C@@H]1CC=C[C@@H]2CN(c3cc4c(cc3F)c(=O)c(C(=O)O)cn4C3CC3)C[C@@H]12 (relative stereo) [Example 6, (1'SR,2'RS,6'SR)-7-(2'-amino-8'-azahicyclo[4.3.0]non-4'-en-8'-yl)-1-cyclopropyl-6-fluoro-1,4-dihydro-4-oxo-3-quinolinecarboxylic acid] | ≤ 0.015 | 0.03 (≈ 0.0782 µM) | 0.06 (≈ 0.156 µM) | 0.03 (≈ 0.0782 µM) | 0.06 (≈ 0.156 µM) |  | 0.03 (≈ 0.0782 µM) | 0.5 (≈ 1.3 µM) | ≤ 0.015 | 0.125 (≈ 0.326 µM)
Nc1c(F)c(N2C[C@H]3[C@H](N)CC=C[C@@H]3C2)c(F)c2c1c(=O)c(C(=O)O)cn2C1CC1 (relative stereo) [Example 19, (1 'SR,2 'RS,6 'SR)-5-Amino-7-(2 '-amino-8 '-azabicyclo[4.3.0]non-4'-en-8'-yl)-1-cyclopropyl-6,8-difluoro-1,4-dihydro-4-oxo-3-quinolinecarboxylic acid] | ≤ 0.015 | ≤ 0.015 | 0.03 (≈ 0.072 µM) | 0.03 (≈ 0.072 µM) | 0.06 (≈ 0.144 µM) | 0.03 (≈ 0.072 µM) | ≤ 0.015 | 1 (≈ 2.4 µM) | ≤ 0.015 | 0.03 (≈ 0.072 µM)
Nc1cccc2c1CN(c1c(F)cc3c(=O)c(C(=O)O)cn(C4CC4)c3c1F)C2 [*, 7-(4-amino-1,3-dihydro-isoindol-2-yl)-1-cyclopropyl-6,8-difluoro-1,4-dihydro-4-oxo-3-quinolinecarboxylic acid, reference compound] | 0.5 (≈ 1.26 µM) | 0.5 (≈ 1.26 µM) |  | 4 (≈ 10.1 µM) |  | 1 (≈ 2.52 µM) | 1 (≈ 2.52 µM) | > 128 | 0.03 (≈ 0.0755 µM) | 
CC1COc2c(N3C[C@H]4[C@H](N)CC=C[C@@H]4C3)c(F)cc3c(=O)c(C(=O)O)cn1c23 (stereo partly drawn) [Example 14, (1'SR,2'RS,6'SR)-10-(2'-Amino-8'-azabicyclo [4.3.0]non-4'-en-8'-yl)-9-fluoro-2,3-dihydro-3-methyl-7-oxo-7H-pyrido[1,2,3-de][1,4]benzoxazine-6-carboxylic acid] | 0.03 (≈ 0.0751 µM) | 0.03 (≈ 0.0751 µM) | 0.125 (≈ 0.313 µM) | 0.125 (≈ 0.313 µM) | 0.125 (≈ 0.313 µM) | 0.125 (≈ 0.313 µM) | 0.125 (≈ 0.313 µM) | 1 (≈ 2.5 µM) | 0.0078 (≈ 0.0195 µM) | 0.25 (≈ 0.626 µM)

Continued, values first:

MIC (E. coli Neumann) [µg/mL] | MIC [1] [µg/mL] | MIC [2] [µg/mL] | MIC (Klebsiella sp. 8085) [µg/mL] | MIC (Micrococcus luteus 9341) [µg/mL] | MIC (Morganella morg. 932) [µg/mL] | MIC (Providencia sp. 12012) [µg/mL] | MIC [3] [µg/mL] | MIC [4] [µg/mL] | MIC [5] [µg/mL] | SMILES
0.0078 (≈ 0.0194 µM) | 0.15 (≈ 0.374 µM) | 0.015 (≈ 0.0374 µM) | 0.015 (≈ 0.0374 µM) | 0.015 (≈ 0.0374 µM) | 0.015 (≈ 0.0374 µM) | 0.015 (≈ 0.0374 µM) | 0.25 (≈ 0.623 µM) | 0.0039 (≈ 0.00972 µM) | 0.03 (≈ 0.0747 µM) | N[C@@H]1CC=C[C@@H]2CN(c3c(F)cc4c(=O)c(C(=O)O)cn(C5CC5)c4c3F)C[C@@H]12 (relative stereo) [Example 4, (1'SR,2'RS,6'SR)-7-(2'-Amino-8'-azabicyclo[4.3.0]non-4'-en-8'-yl)-1-cyclopropyl-6,8-difluoro-1,4-hydro-4-oxo-3-quinolinecarboxylic acid]
0.0039 (≈ 0.00933 µM) | 0.0078 (≈ 0.0187 µM) | 0.015 (≈ 0.0359 µM) | 0.015 (≈ 0.0359 µM) | 0.015 (≈ 0.0359 µM) | 0.015 (≈ 0.0359 µM) | 0.015 (≈ 0.0359 µM) | 0.25 (≈ 0.598 µM) | ≤ 0.0019 | 0.015 (≈ 0.0359 µM) | N[C@@H]1CC=C[C@@H]2CN(c3c(F)cc4c(=O)c(C(=O)O)cn(C5CC5)c4c3Cl)C[C@@H]12 (relative stereo) [Example 12, (1'SR,2'RS,6'SR)-7-(2'-Amino-8'-azabicyclo[4.3.0]non-4'-en-8'-yl)-8-chloro-1-cyclopropyl-6-fluoro-1,4-dihydro-4-oxo-3-quinolinecarboxylic acid]
0.03 (≈ 0.0722 µM) | 0.03 (≈ 0.0722 µM) | 0.125 (≈ 0.301 µM) | 0.06 (≈ 0.144 µM) | 0.125 (≈ 0.301 µM) | 0.125 (≈ 0.301 µM) | 0.125 (≈ 0.301 µM) | 2 (≈ 4.81 µM) | ≤ 0.015 | 0.125 (≈ 0.301 µM) | CN[C@@H]1CC=C[C@@H]2CN(c3c(F)cc4c(=O)c(C(=O)O)cn(C5CC5)c4c3F)C[C@H]21 (relative stereo) [Example 22, (1'SR,2'RS,6'SR)-1-Cyclopropyl-6,8-difluoro-1,4-dihydro-7-(2'-methylamino-8'-azabicyclo[4.3-0]non-4'-en-8'-yl)-4-oxo-3-quinolinecarboxylic acid]
